Results taken from US8580794B2 (AbbVie Inc., priority 2009, dated 2013).
pKi: −log10 of the molar value.

molecular target: GST-Bc1-2 (Homo sapiens, UniProt P10415); assay: Time Resolved-Fluorescence Resonance Energy Transfer (TR-FRET) Bcl-2 binding assay with F-Bak peptide probe; conditions: GST-Bcl-2 1 nM, F-Bak probe 100 nM, Tb-anti-GST 1 nM; '<' = below limit of detection; read-out: TR-FRET Bcl-2 Binding Ki
Sequence (P10415 whole entry): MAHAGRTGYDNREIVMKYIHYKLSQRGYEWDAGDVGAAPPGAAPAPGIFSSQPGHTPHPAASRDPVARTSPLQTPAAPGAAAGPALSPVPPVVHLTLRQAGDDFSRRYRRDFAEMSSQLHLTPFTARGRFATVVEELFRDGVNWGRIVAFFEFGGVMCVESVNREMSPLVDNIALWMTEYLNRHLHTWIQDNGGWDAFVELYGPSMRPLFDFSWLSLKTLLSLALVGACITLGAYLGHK

Question: How did the pKi turn out when CC1(C)CCC(c2ccc(Cl)cc2)=C(CN2CCN(c3ccc(C(=O)NS(=O)(=O)c4cnc(OCC5CCOCC5)c(C#N)c4)c(Oc4cnc5[nH]ccc5c4)c3)CC2)C1 [Example 76, 4-(4-{[2-(4-chlorophenyl)-5,5-dimethylcyclohex-1-en-1-yl]methyl}piperazin-1-yl)-N-{[5-cyano-6-(tetrahydro-2H-pyran-4-ylmethoxy)pyridin-3-yl]sulfonyl}-2-(1H-pyrrolo[2,3-b]pyridin-5-yloxy)benzamide] was run?
Answer: The pKi was 9.71.

Question: With CC1(C)CCC(CN2CCN(c3ccc(C(=O)NS(=O)(=O)c4ccc(OCC5COCCN5C(=O)OC(C)(C)C)c([N+](=O)[O-])c4)c(Oc4cnc5[nH]ccc5c4)c3)CC2)=C(c2ccc(Cl)cc2)C1 (centres unmarked) [Example 77, tert-butyl 3-{[4-({[4-(4-{[2-(4-chlorophenyl)-4,4-dimethylcyclohex-1-en-1-yl]methyl}piperazin-1-yl)-2-(1H-pyrrolo[2,3-b]pyridin-5-yloxy)benzoyl]amino}sulfonyl)-2-nitrophenoxy]methyl}morpholine-4-carboxylate] as the compound, how does the pKi read?
Answer: The pKi was 9.67.

Question: CC1(C)CCC(CN2CCN(c3ccc(C(=O)NS(=O)(=O)c4ccc(OCC5COCCN5)c([N+](=O)[O-])c4)c(Oc4cnc5[nH]ccc5c4)c3)CC2)=C(c2ccc(Cl)cc2)C1 (centres unmarked) [Example 78, 4-(4-{[2-(4-chlorophenyl)-4,4-dimethylcyclohex-1-en-1-yl]methyl}piperazin-1-yl)-N-{[4-(morpholin-3-ylmethoxy)-3-nitrophenyl]sulfonyl}-2-(1H-pyrrolo[2,3-b]pyridin-5-yloxy)benzamide] was tested. Which pKi did it give?
Answer: Its pKi is over 11.00.

Question: O=C(NS(=O)(=O)c1ccc(NCC2CCOCC2)c([N+](=O)[O-])c1)c1ccc(N2CCN(CC3=C(c4ccc(Cl)cc4)CCC4(CCCC4)C3)CC2)cc1Oc1cnc2[nH]ccc2c1 [Example 79, 4-(4-{[8-(4-chlorophenyl)spiro[4.5]dec-7-en-7-yl]methyl}piperazin-1-yl)-N-({3-nitro-4-[(tetrahydro-2H-pyran-4-ylmethyl)amino]phenyl}sulfonyl)-2-(1H-pyrrolo[2,3-b]pyridin-5-yloxy)benzamide] was tested. Which pKi did it give?
Answer: The pKi was over 11.00.

Question: CC1(C)CCC(CN2CCN(c3ccc(C(=O)NS(=O)(=O)c4ccc(NC5CCN(S(C)(=O)=O)CC5)c([N+](=O)[O-])c4)c(Oc4cnc5[nH]ccc5c4)c3)CC2)=C(c2ccc(Cl)cc2)C1 [Example 80, 4-(4-{[2-(4-chlorophenyl)-4,4-dimethylcyclohex-1-en-1-yl]methyl}piperazin-1-yl)-N-[(4-{[1-(methylsulfonyl)piperidin-4-yl]amino}-3-nitrophenyl)sulfonyl]-2-(1H-pyrrolo[2,3-b]pyridin-5-yloxy)benzamide] was tested. Which pKi did it give?
Answer: The pKi was over 11.00.

Question: How did the pKi turn out when CC1(C)CCC(CN2CCN(c3ccc(C(=O)NS(=O)(=O)c4ccc(NC5CCS(=O)(=O)CC5)c([N+](=O)[O-])c4)c(Oc4cnc5[nH]ccc5c4)c3)CC2)=C(c2ccc(Cl)cc2)C1 [Example 81, 4-(4-{[2-(4-chlorophenyl)-4,4-dimethylcyclohex-1-en-1-yl]methyl}piperazin-1-yl)-N-({4-[(1,1-dioxidotetrahydro-2H-thiopyran-4-yl)amino]-3-nitrophenyl}sulfonyl)-2-(1H-pyrrolo[2,3-b]pyridin-5-yloxy)benzamide] was run?
Answer: Its pKi is over 11.00.

Question: CC1(C)CCC(CN2CCN(c3ccc(C(=O)NS(=O)(=O)c4ccc(Cl)c([N+](=O)[O-])c4)c(Oc4cnc5[nH]ccc5c4)c3)CC2)=C(c2ccc(Cl)cc2)C1 [Example 82, N-[(4-chloro-3-nitrophenyl)sulfonyl]-4-(4-{[2-(4-chlorophenyl)-4,4-dimethylcyclohex-1-en-1-yl]methyl}piperazin-1-yl)-2-(1H-pyrrolo[2,3-b]pyridin-5-yloxy)benzamide] was tested. Which pKi did it give?
Answer: Its pKi is 9.48.

Question: With CC1(C)CCC(CN2CCN(c3ccc(C(=O)NS(=O)(=O)c4ccc(NC5CCN(CC(F)(F)F)CC5)c([N+](=O)[O-])c4)c(Oc4cnc5[nH]ccc5c4)c3)CC2)=C(c2ccc(Cl)cc2)C1 [Example 83, 4-(4-{[2-(4-chlorophenyl)-4,4-dimethylcyclohex-1-en-1-yl]methyl}piperazin-1-yl)-N-[(3-nitro-4-{[1-(2,2,2-trifluoroethyl)piperidin-4-yl]amino}phenyl)sulfonyl]-2-(1H-pyrrolo[2,3-b]pyridin-5-yloxy)benzamide] as the compound, how does the pKi read?
Answer: The pKi was 10.15.
